Consider three molecules from paper PMC3670925, “Extracellular Modulation of the Silkmoth Sex Pheromone Receptor Activity by Cyclic Nucleotides” (PLoS ONE, 2013).

Holding throughout (type): cell-based
In one experiment the target is T1, Or47a (Drosophila melanogaster, UniProt P81921).
T1 construct: with Orco
T1 sequence (P81921 1-385): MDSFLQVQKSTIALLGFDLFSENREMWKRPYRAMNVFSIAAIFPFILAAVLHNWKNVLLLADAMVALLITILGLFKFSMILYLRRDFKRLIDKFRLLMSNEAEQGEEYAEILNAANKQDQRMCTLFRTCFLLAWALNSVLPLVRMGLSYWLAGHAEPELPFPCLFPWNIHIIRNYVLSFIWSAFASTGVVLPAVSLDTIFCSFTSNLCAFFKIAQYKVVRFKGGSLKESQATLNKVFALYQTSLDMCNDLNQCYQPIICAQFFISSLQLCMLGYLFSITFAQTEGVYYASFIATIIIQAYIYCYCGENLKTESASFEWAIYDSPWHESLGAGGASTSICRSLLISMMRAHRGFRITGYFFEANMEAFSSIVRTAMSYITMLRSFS
T1 sequence (Q9VNB5 1-486 partner): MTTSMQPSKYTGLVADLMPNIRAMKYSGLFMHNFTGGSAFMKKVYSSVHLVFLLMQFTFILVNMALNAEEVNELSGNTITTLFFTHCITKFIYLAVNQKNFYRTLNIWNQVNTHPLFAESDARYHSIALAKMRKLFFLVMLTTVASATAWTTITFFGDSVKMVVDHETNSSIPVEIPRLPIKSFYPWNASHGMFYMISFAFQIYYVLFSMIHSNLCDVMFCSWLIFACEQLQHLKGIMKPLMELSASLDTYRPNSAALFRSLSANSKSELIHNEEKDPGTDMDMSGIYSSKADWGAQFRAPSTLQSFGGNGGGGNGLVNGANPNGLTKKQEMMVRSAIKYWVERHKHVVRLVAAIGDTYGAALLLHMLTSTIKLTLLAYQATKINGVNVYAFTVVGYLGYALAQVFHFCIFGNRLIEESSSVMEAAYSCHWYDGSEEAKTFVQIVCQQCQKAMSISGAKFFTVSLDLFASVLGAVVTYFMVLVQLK
Kind of experiment: two-electrode voltage clamp in Xenopus oocytes, […]. On the technique in general: In two-electrode clamp one electrode senses voltage and the other passes current.

A further experiment deals with T2, AgOr2 (Anopheles gambiae, UniProt Q8WTE6).
T2 construct: gene OR2; with AgOrco
Kind of experiment: two-electrode voltage clamp in Xenopus oocytes, […].

For another experiment, the target named is T3, BmOr-1 (Bombyx mori, UniProt Q5WA61).
T3 construct: with BmOrco
T3 sequence (Q5WA61 1-430): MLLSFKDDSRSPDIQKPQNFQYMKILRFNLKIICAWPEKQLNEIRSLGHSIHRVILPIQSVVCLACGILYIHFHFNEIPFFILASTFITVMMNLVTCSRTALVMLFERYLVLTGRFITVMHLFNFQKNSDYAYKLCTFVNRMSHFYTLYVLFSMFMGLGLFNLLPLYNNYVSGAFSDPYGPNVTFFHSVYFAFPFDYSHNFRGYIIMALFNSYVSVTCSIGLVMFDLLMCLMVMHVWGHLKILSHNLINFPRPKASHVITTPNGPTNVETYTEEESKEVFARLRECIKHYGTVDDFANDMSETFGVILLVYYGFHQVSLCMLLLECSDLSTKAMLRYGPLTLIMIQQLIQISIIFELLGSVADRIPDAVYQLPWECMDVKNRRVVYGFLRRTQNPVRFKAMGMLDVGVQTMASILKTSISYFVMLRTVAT
T3 sequence (Q7YT34 1-472 partner): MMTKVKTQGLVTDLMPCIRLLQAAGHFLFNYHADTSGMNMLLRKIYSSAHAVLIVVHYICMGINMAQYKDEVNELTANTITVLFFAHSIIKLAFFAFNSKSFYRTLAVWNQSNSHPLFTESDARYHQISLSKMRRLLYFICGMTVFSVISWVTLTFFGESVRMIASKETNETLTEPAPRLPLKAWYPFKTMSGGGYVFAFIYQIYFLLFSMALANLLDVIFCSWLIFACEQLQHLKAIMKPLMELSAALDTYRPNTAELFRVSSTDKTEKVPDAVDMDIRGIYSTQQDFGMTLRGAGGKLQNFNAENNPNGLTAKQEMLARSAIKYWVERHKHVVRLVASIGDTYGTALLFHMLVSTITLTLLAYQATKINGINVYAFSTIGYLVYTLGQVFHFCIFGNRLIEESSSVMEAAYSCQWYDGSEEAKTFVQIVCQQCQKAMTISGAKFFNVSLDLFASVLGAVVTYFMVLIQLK
Kind of experiment: two-electrode voltage clamp in Xenopus oocytes, dose-response.

T2 sequence (Q8WTE6 whole entry): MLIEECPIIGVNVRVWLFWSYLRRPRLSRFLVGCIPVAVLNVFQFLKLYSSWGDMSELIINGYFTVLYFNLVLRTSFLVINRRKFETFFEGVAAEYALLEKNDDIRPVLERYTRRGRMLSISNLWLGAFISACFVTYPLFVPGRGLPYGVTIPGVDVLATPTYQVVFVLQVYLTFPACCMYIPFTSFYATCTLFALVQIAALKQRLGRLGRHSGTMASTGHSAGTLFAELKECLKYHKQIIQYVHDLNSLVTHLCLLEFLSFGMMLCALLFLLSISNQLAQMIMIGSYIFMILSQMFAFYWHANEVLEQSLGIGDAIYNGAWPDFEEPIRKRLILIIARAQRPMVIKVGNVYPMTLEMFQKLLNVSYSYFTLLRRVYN

For `CCCCCOC(C)=O` [pentylacetate], on Or47a, the “two-electrode voltage clamp in Xenopus oocytes, 100 μM” value is “oocytes expressing various insect Or-Orco complex in response to their cognate ligands and cyclic nucleotide reagents”.

On to `Cc1ccccc1O` [2-methylphenol], for which, on AgOr2, the “two-electrode voltage clamp in Xenopus oocytes, 100 μM” value was “oocytes expressing various insect Or-Orco complex in response to their cognate ligands and cyclic nucleotide reagents”. In turn, `CCC/C=C\C=C\CCCCCCCCCO` [bombykol] displayed an EC50 at BmOr-1 of 8.2 µM.

A word on the EC50: it is the concentration needed to bring the measured effect to its halfway point. Read a high EC50 as lower potency in that assay.
